Here are results for 7 molecules from US11781118B2, “Preparation of L-amino acid deaminase mutant and application thereof” (Jiangnan University, priority 2020, dated 2023).

Series [1] addresses Proteus mirabilis L-amino acid deaminase (PmirLAAD) mutant M4, S98A/T105A/S106A/L341A, SEQ ID NO: 15 (Proteus mirabilis, UniProt Q51890, L341A/S106A/S98A/T105A). Description: Kinetic parameters with L-valine as substrate, mutant M4. In kind it is biochemical. The conditions noted are these: M4 compared with parent enzyme, "increased by", 25° C. How it is done:
(§1) In order to evaluate the mutants, kinetic parameters of the mutant parent PmirLAAD^WT and the mutants PmirLAAD^M1, PmirLAAD^M2, PmirLAAD^M3 and PmirLAAD^M4 at 25° C. were determined in the disclosure.
(§2) kcat/Km was calculated based on the initial rate of α-ketoisovaleric acid produced from hydrolyzed L-valine substrates with different concentrations determined at 25° C. Product inhibition of the parent enzyme and the mutants was determined by a product inhibition constant determination experiment in the transformation process. A PmirLAAD^WT parent enzyme strain and mutant strains were respectively added to a reaction solution with the final concentration of wet cells of 10 g/L. 60 mM L-valine was used as the substrate, 10-100 mM α-ketoisovaleric acid was added to the transformation system, the initial reaction rate V0 was determined after about 30 min of reaction, the maximum reaction rate Vmax was determined after about 2 h of reaction, and the product inhibition constant KPI was calculated according to the following formula: […]

For series [2], the target named is Proteus mirabilis L-amino acid deaminase (PmirLAAD) mutant M2, S98A/T105A, SEQ ID NO: 11 (Proteus mirabilis, UniProt Q51890, S98A/T105A). Briefly: Product inhibition constant determination, mutant M2. In kind it is biochemical. The following applies: M2 relative to WT. On the procedure: as §1, §2
Proteus mirabilis L-amino acid deaminase (PmirLAAD) mutant M2, S98A/T105A, SEQ ID NO: 11, sequence (Q51890 whole entry S98A/T105A): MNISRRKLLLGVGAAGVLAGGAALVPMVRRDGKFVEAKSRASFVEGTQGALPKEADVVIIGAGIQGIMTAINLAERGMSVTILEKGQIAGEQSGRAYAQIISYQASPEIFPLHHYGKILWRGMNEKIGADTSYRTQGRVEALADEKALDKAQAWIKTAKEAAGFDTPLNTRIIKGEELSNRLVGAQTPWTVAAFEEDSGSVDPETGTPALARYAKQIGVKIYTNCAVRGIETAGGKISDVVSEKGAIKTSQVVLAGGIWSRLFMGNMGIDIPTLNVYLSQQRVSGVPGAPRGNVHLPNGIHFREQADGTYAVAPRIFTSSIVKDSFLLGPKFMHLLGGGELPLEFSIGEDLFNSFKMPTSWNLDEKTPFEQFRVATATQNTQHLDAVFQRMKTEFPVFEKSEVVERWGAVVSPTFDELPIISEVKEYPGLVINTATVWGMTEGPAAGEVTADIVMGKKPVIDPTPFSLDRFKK
(§3) V0: initial reaction rate, Vmax: maximum reaction rate, Km: Michaelis constant, [S]: substrate concentration, [P]: product concentration, KPI: product inhibition constant.

The subject of series [3] is Proteus mirabilis L-amino acid deaminase (PmirLAAD) mutant M1, S98A, SEQ ID NO: 3. Briefly: Product inhibition constant determination, mutant M1. In kind it is biochemical. The following applies: M1 relative to WT. On the procedure: as §1, §2, §3
The test system of series [4] is Proteus mirabilis L-amino acid deaminase (PmirLAAD) mutant M3, S98A/T105A/S106A, SEQ ID NO: 13. Briefly: Product inhibition constant determination, mutant M3. In kind it is biochemical. The following applies: M3 relative to WT. On the procedure: as §1, §2, §3
For series [5], the target named is Proteus mirabilis L-amino acid deaminase (PmirLAAD), wild-type parent, SEQ ID NO: 1 (Proteus mirabilis, UniProt Q51890). Briefly: Product inhibition constant determination, parent enzyme PmirLAAD WT. The conditions noted are these: relative to WT. In kind it is biochemical. How it is done:
as §1, §2, §3

For series [6], the system named is Proteus mirabilis L-amino acid deaminase (PmirLAAD) mutant M4, S98A/T105A/S106A/L341A, SEQ ID NO: 15. Briefly: Product inhibition constant determination, mutant M4. In kind it is biochemical. On the procedure: as §1, §2, §3
Series [7] deals with CC(C)[C@H](N)C(=O)O. Description: Kinetic parameters with L-valine as substrate, parent enzyme PmirLAAD WT. In kind it is biochemical, Proteus mirabilis. The conditions noted are these: other: L-valine substrate, 25° C., initial rate of α-ketoisovaleric acid. On the procedure: as §1, §2
Series [8] is described as follows: Shake flask screening of mutants: whole-cell transformation of L-valine, α-ketoisovaleric acid determined by HPLC. In kind it is cell-based, E. coli BL21. The following applies: transformation temperature 25° C., pH 8.0, 24 h. On the procedure:
Preparation of sample for determining α-ketoisovaleric acid content by HPLC: 1 mL of a transformed transformation solution is centrifuged at 12000 rpm for 5 min, the supernatant is diluted and filtered through a 0.45 μm filtration membrane, and the filtrate is for liquid chromatography.
Determination of α-ketoisovaleric acid content by HPLC: a waters high performance liquid chromatograph (equipped with a UV-visible detector) and a Bio-Rad Aminex HPX-87H (300×7.8 mm, 9 μm) chromatographic column are used, and the mobile phase is dilute sulfuric acid with the concentration of 2.5 mmol/L. The mobile phase is filtered through a 0.22 μm filtration membrane; the filtrate is subjected to ultrasonic degassing; and detection is performed at the flow rate of 0.6 mL/min, the column temperature of 35° C. and the ultraviolet detection wavelength of 210 nm.
(2) Shake flask screening of single mutants: The obtained 4 mutant strains and a strain containing wild-type L-amino acid deaminase were respectively inoculated into an LB seed medium, and cultured at 200 rpm at 37° C. for about 10 h. The products were respectively inoculated into a shake flask fermentation medium with the inoculum size of 5% of the medium by volume, and cultured at 200 rpm at 37° C. until OD600 was about 0.8. IPTG with the final concentration of 0.04 mmol/L was added for induction, and the induction was performed at 200 rpm at 25° C. for 14 h. The product was centrifuged at 6000 rpm for 8 min to collect bacterial cells. The bacterial cells collected by centrifugation were used for later transformation experiments.
Transformation conditions: transformation temperature 25° C., reaction pH 8.0, and transformation time 24 h.
The yield of α-ketoisovaleric acid of the transformation solution after the completion of the transformation was determined by HPLC. Finally, S98A produced α-ketoisovaleric acid at the highest yield.

Proteus mirabilis L-amino acid deaminase (PmirLAAD), wild-type parent, SEQ ID NO: 1, sequence (Q51890 entry or part of it): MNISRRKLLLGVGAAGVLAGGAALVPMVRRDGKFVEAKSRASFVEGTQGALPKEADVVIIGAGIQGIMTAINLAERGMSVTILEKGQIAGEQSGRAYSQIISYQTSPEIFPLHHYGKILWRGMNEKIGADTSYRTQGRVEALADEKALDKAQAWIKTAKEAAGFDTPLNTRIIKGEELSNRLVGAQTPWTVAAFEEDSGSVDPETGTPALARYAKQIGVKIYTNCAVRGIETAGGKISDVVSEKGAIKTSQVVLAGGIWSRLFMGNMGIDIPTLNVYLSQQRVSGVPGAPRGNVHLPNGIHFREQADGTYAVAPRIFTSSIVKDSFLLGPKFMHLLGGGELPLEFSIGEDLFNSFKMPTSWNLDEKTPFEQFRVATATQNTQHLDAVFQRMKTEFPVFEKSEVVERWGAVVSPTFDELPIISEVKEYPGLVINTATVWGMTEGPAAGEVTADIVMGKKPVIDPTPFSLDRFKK
Proteus mirabilis L-amino acid deaminase (PmirLAAD) mutant M4, S98A/T105A/S106A/L341A, SEQ ID NO: 15 (Proteus mirabilis, UniProt Q51890, L341A/S106A/S98A/T105A), sequence (Q51890 whole entry S98A/T105A/S106A/L341A): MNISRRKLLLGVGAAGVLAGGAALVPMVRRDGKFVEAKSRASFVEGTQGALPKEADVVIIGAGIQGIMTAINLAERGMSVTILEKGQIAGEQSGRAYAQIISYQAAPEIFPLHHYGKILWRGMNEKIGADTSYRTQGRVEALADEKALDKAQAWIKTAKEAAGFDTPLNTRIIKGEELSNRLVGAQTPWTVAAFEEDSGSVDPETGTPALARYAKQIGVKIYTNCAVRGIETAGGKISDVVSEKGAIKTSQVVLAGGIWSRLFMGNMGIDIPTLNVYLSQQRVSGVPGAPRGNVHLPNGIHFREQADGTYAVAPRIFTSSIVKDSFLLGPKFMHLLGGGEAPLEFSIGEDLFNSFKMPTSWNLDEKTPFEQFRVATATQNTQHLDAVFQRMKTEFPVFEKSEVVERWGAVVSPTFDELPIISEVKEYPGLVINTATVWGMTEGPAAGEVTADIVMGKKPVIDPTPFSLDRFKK

As to `CC(C)[C@H](N)C(=O)O` [L-valine], the “increase of kcat/Km (catalytic efficiency)” value in series [1] was 5.2 times. Take `CC(C)C(=O)C(=O)O` [α-ketoisovaleric acid]: the “Times of change (KPI)” value in series [2] turned out to be 3.9; in series [3], 2.6; in series [4] it was 4.6; in series [5] it was 1; in series [6] (M4 relative to WT), 6.7. The “increase of product inhibition constant” value in series [6] (M4 compared with parent enzyme, "increased by") was 5.7 times.

One may read the kcat/Km as the second-order rate constant that governs catalysis at low substrate concentration. For the molecule “Proteus mirabilis L-amino acid deaminase (PmirLAAD), wild-type parent, SEQ ID NO: 1 (Proteus mirabilis)”, in series [7], the kcat/Km was 4.33 M⁻¹ s⁻¹.

B1: PmirLAAD^S98A/T105A/S106A (protein)
chain: MNISRRKLLLGVGAAGVLAGGAALVPMVRRDGKFVEAKSRASFVEGTQGALPKEADVVIIGAGIQGIMTAINLAERGMSVTILEKGQIAGEQSGRAYAQIISYQAAPEIFPLHHYGKILWRGMNEKIGADTSYRTQGRVEALADEKALDKAQAWIKTAKEAAGFDTPLNTRIIKGEELSNRLVGAQTPWTVAAFEEDSGSVDPETGTPALARYAKQIGVKIYTNCAVRGIETAGGKISDVVSEKGAIKTSQVVLAGGIWSRLFMGNMGIDIPTLNVYLSQQRVSGVPGAPRGNVHLPNGIHFREQADGTYAVAPRIFTSSIVKDSFLLGPKFMHLLGGGELPLEFSIGEDLFNSFKMPTSWNLDEKTPFEQFRVATATQNTQHLDAVFQRMKTEFPVFEKSEVVERWGAVVSPTFDELPIISEVKEYPGLVINTATVWGMTEGPAAGEVTADIVMGKKPVIDPTPFSLDRFKK
In the case of B1, the α-ketoisovaleric acid in series [8] was 60.6 g/L.

B2: PmirLAAD^S98A/T105A/L341A (protein)
chain: MNISRRKLLLGVGAAGVLAGGAALVPMVRRDGKFVEAKSRASFVEGTQGALPKEADVVIIGAGIQGIMTAINLAERGMSVTILEKGQIAGEQSGRAYAQIISYQASPEIFPLHHYGKILWRGMNEKIGADTSYRTQGRVEALADEKALDKAQAWIKTAKEAAGFDTPLNTRIIKGEELSNRLVGAQTPWTVAAFEEDSGSVDPETGTPALARYAKQIGVKIYTNCAVRGIETAGGKISDVVSEKGAIKTSQVVLAGGIWSRLFMGNMGIDIPTLNVYLSQQRVSGVPGAPRGNVHLPNGIHFREQADGTYAVAPRIFTSSIVKDSFLLGPKFMHLLGGGEAPLEFSIGEDLFNSFKMPTSWNLDEKTPFEQFRVATATQNTQHLDAVFQRMKTEFPVFEKSEVVERWGAVVSPTFDELPIISEVKEYPGLVINTATVWGMTEGPAAGEVTADIVMGKKPVIDPTPFSLDRFKK
B2: the α-ketoisovaleric acid in series [8] worked out at 56.1 g/L.

B3: PmirLAAD^T105A/S106A/L341A (protein)
chain: MNISRRKLLLGVGAAGVLAGGAALVPMVRRDGKFVEAKSRASFVEGTQGALPKEADVVIIGAGIQGIMTAINLAERGMSVTILEKGQIAGEQSGRAYSQIISYQAAPEIFPLHHYGKILWRGMNEKIGADTSYRTQGRVEALADEKALDKAQAWIKTAKEAAGFDTPLNTRIIKGEELSNRLVGAQTPWTVAAFEEDSGSVDPETGTPALARYAKQIGVKIYTNCAVRGIETAGGKISDVVSEKGAIKTSQVVLAGGIWSRLFMGNMGIDIPTLNVYLSQQRVSGVPGAPRGNVHLPNGIHFREQADGTYAVAPRIFTSSIVKDSFLLGPKFMHLLGGGEAPLEFSIGEDLFNSFKMPTSWNLDEKTPFEQFRVATATQNTQHLDAVFQRMKTEFPVFEKSEVVERWGAVVSPTFDELPIISEVKEYPGLVINTATVWGMTEGPAAGEVTADIVMGKKPVIDPTPFSLDRFKK
The molecule B3 gave a α-ketoisovaleric acid in series [8] of 59.6 g/L.

B4: PmirLAAD^S98A/S106A/L341A (protein)
chain: MNISRRKLLLGVGAAGVLAGGAALVPMVRRDGKFVEAKSRASFVEGTQGALPKEADVVIIGAGIQGIMTAINLAERGMSVTILEKGQIAGEQSGRAYAQIISYQTAPEIFPLHHYGKILWRGMNEKIGADTSYRTQGRVEALADEKALDKAQAWIKTAKEAAGFDTPLNTRIIKGEELSNRLVGAQTPWTVAAFEEDSGSVDPETGTPALARYAKQIGVKIYTNCAVRGIETAGGKISDVVSEKGAIKTSQVVLAGGIWSRLFMGNMGIDIPTLNVYLSQQRVSGVPGAPRGNVHLPNGIHFREQADGTYAVAPRIFTSSIVKDSFLLGPKFMHLLGGGEAPLEFSIGEDLFNSFKMPTSWNLDEKTPFEQFRVATATQNTQHLDAVFQRMKTEFPVFEKSEVVERWGAVVSPTFDELPIISEVKEYPGLVINTATVWGMTEGPAAGEVTADIVMGKKPVIDPTPFSLDRFKK
In series [8], B4 had a α-ketoisovaleric acid of 53.5 g/L.
